Test results as given in patent US9096550B2, “Bryostatin analogues and methods of making and using thereof” (UNIVERSITY OF UTAH RESEARCH FOUNDATION, priority 2008, dated 2015).

Experiments:
[1] = tested on: LNCaP cells; experiment: Proliferation of LNCaP cells (Incucyte confluency); type: cell-based, human; settings: 300 nM PMA combined with 1000 nM compound, 80 hrs
Method: FIGS. 12A-D show the effect of different compounds on the proliferation and apoptosis of LNCaP cells. […] Time-elapsed images were taken with an Incucyte imaging system every hour for 4 days. The proliferation of LNCaP cells is presented as increase in confluency (read by the instrument) at 80 hrs. Data represent the means+SEM of three independent experiments. […] Apoptosis was measured 2 days after treatment by flow cytometry using 7-AAD and Yo-Pro-1 as described in Materials and Methods. Data represent the means+SEM of three independent experiments.
FIGS. 13A and 13B show the proliferation and morphology of LNCaP cells detected by Incucyte. LNCaP cells were treated with DMSO as control, 300 nM PMA, 1000 nM bryostatin 1 or the bryologue MERLE 21, or with 300 nM PMA in combination with 1000 nM bryostatin 1 or the bryologue MERLE 21. Time-elapsed images were taken by the Incucyte imaging system every hour. […] The arrow indicates the time of treatment. Data are representative of three independent experiments.
The extent of confluency of LNCaP cells (from ATCC, Manassas, Va.) and the morphological changes after treatment were followed in real time using Incucyte (Essen Instruments, Ann Arbor, Mich.). Images of LNCaP cells plated into 24 well plates were taken every 1 hour by the instrument before and after treatment for a total of 4 days. The confluency of the cells was calculated by the instrument's program. The proliferation of LNCaP cells was expressed as the difference in cell confluency before and after treatment.

[2] = tested on: C3H10T1/2 cells; experiment: Release of arachidonic acid from C3H10T1/2 cells; type: cell-based, mouse; settings: % of the maximal PMA-induced response relative to the DMSO control, 2 hour treatment
Method: FIGS. 15A and 15B show the release of arachidonic acid from treated C3H10T1/2 cells. The cells were labeled with [^3H]arachidonic acid for 18 hrs, treated with DMSO as control, different concentrations of PMA (0.1-100 nM), bryostatin 1 (1-1000 nM), the bryologues (1-1000 nM) (A) or 100 nM PMA in combination with 1000 nM bryostatin 1, or the bryologues MERLE 21, 22, 23. The radioactive arachidonic acid released into the medium was quantitated after 2 hour treatment. The response of 100 nM PMA was taken as 100%. Data represent the means+SEM of four (FIG. 15A) or three (FIG. 15B) independent experiments.
C3H10T1/2 cells (ATCC, Manassas, Va.) were plated in 24 well plates and treated with different drugs or with DMSO as control. The release of arachidonic acid after 2 hour treatment was measured as described previously (Dell′Aquila M L, Herald C L, Kamano Y, Pettit G R, Blumberg P M. Differential effects of byrostatins and phorbol esters on arachidonic acid metabolite release and epidermal growth factor binding in C3H10T1/2 cells. Cancer Res 1988; 48: 3702-3708).

[3] = tested on: U937 cells; experiment: Inhibition of U937 cell proliferation; type: cell-based, human
Method: (§1) U937 cells (Sundstrom, C.; Nilsson, K.: Establishment and characterization of a human histiocytic lymphoma cell line (U-937). Int. J. Cancer 1976, 17: 565-577.), purchased from ATCC (Manassas, Va.) and cultured in RPMI-1640 medium supplemented with 10% FBS (ATCC, Manassas, Va.), were plated in 35 mm dishes at a density of 2×10^5 living cells/ml and treated with different concentrations of the drugs or DMSO. After 72 hours, the number of cells in the supernatant (non-attached cells) and the number of attached cells (after trypsinization) were counted using a Beckman particle counter (Beckman Coulter Inc., Fullerton, Calif.). The number of attached cells is expressed as percent of total cells (FIGS. 8-10).
U937 cells were treated with PMA (0.1-100 nM), bryostatin 1 (1-1000 nM), the indicated compound (1-1000 nM), 10 nM PMA with different concentrations of bryostatin 1 (1-1000 nM) or 10 nM PMA with different concentrations of indicated compound (1-1000 nM). The number of attached and non-attached cells was counted and the number of total cells was expressed as % of control. The bars and error bars represent the average and the standard error of the mean of five independent experiments (FIGS. 8-10).
(§2) U937 cells (Sundstrom and Nilsson, 1976), purchased from ATCC (Manassas, Va.) and cultured in RPMI-1640 medium supplemented with 10% FBS (ATCC, Manassas, Va.), were plated in 35 mm dishes at a density of 1×10^5 living cells/ml and treated with different concentrations of the drugs or DMSO. After 72 hours, the number of cells in the supernatant (non-attached cells) and the number of attached cells (after trypsinization) were counted using a particle counter. The number of attached cells is expressed as percent of total cells.
U937 cells were treated with PMA (0.01-100 nM), bryostatin1 (0.1-1000 nM), analogue 12 (0.1-1000 nM), 10 nM PMA with different concentrations of bryostatin 1 (0.1-1000 nM) or 10 nM PMA with different concentrations of analogue 12 (0.1-1000 nM). The numbers of attached and non-attached cells were counted and the number of total cells was expressed as % of control. The bars and error bars represent the average and the standard error of the mean of at least three independent experiments.
(§3) U-937 cells (Sundstrom and Nilsson, 1976), purchased from ATCC (Manassas, Va.) and cultured in RPMI-1640 medium supplemented with 10% FBS (ATCC, Manassas, Va.), were plated in 35 mm dishes at a density of 1×10^5 living cells/ml and treated with different concentrations of the drugs or DMSO. After 72 hours, the number of cells in the supernatant (non-attached cells) and the number of attached cells (after trypsinization) were counted using a particle counter. The number of attached cells is expressed as percent of total cells.
U-937 cells were treated with PMA (0.1-100 nM), bryostatin 1 (1-1000 nM), the indicated compound (1-1000 nM), 10 nM PMA with different concentrations of bryostatin 1 (1-1000 nM) or 10 nM PMA with different concentrations of indicated compound (1-1000 nM). The number of attached and non-attached cells was counted and the number of total cells was expressed as % of control. The bars and error bars represent the average and the standard error of the mean of at least three independent experiments.

[4] = tested on: U937 cells; experiment: Attachment of U937 cells; type: cell-based, human
Method: as §1
U937 cells were treated with PMA (0.1-100 nM), bryostatin 1 (1-1000 nM), the indicated compound (1-1000 nM), 10 nM PMA with different concentrations of bryostatin 1 (1-1000 nM) or 10 nM PMA with different concentrations of indicated compound (1-1000 nM) for 72 hours. The number of attached cells and total cells were counted and the attached cells were graphed as percent of total cells. The bars and error bars represent the average and the standard error of the mean of five independent experiment (FIGS. 8-10).
as §2
U937 cells were treated with PMA (0.01-100 nM), bryostatin1 (0.1-1000 nM), analogue 12 (MERLE 28) (0.1-1000 nM), 10 nM PMA with different concentrations of bryostatin 1 (0.1-1000 nM) or 10 nM PMA with different concentrations of analogue 12 (0.1-1000 nM). The number of attached cells and total cells were counted and the attached cells were graphed as percent of total cells. The bars and error bars represent the average and the standard error of the mean of at least three independent experiments.
as §3
U-937 cells were treated with PMA (0.1-100 nM), bryostatin 1 (1-1000 nM), the indicated compound (1-1000 nM), 10 nM PMA with different concentrations of bryostatin 1 (1-1000 nM) or 10 nM PMA with different concentrations of indicated compound (1-1000 nM) for 72 hours. The number of attached cells and total cells were counted and the attached cells were graphed as percent of total cells. The bars and error bars represent the average and the standard error of the mean of at least three independent experiments.

[5] = 10 nM PMA with different concentrations of compound

Row | SMILES | block of the PMA inhibition of LNCaP cell growth [1] | arachidonic acid release, average level of response [2] [%] | block of PMA inhibition of U937 cell proliferation [3, 5] | inhibition of U937 cell proliferation ([3]; compound alone) | block of PMA-induced attachment of U937 cells [4, 5] | attachment of U937 cells ([4]; compound alone, 72 hours)
1 | C=C1C[C@@H]2C[C@@H]3CC(=C)C[C@H](/C=C/C(C)(C)[C@]4(O)O[C@@H](C/C(=C\C(=O)OC)[C@@H]4OC(=O)c4ccccc4)C[C@H]([C@@H](C)O)OC(=O)C[C@H](O)C[C@H](C1)O2)O3 [MERLE 21] | did not appear to quite reach the level observed for bryostatin 1 | 73 |  |  |  | 
2 | C=C1C[C@@H]2C[C@@H]3CC(=C)C[C@H](/C=C/C(C)(C)[C@]4(O)O[C@@H](C/C(=C\C(=O)OC)[C@@H]4OC(=O)CCCCCCC)C[C@H]([C@@H](C)O)OC(=O)C[C@H](O)C[C@H](C1)O2)O3 [MERLE 22] | did not appear to quite reach the level observed for bryostatin 1 | 69 |  |  |  | 
3 | C=C1C[C@@H]2C[C@@H]3CC(=C)C[C@H](/C=C/C(C)(C)[C@]4(O)O[C@@H](C/C(=C\C(=O)OC)[C@@H]4OC(=O)/C=C/C=C/CCC)C[C@H]([C@@H](C)O)OC(=O)C[C@H](O)C[C@H](C1)O2)O3 [MERLE 23] | did not appear to quite reach the level observed for bryostatin 1 | 64 |  |  |  | 
4 | C=C1C[C@H]2CC3(O)O[C@H](C[C@@H](O)CC(=O)O[C@@H]([C@@H](C)O)C[C@@H]4C/C(=C\C(=O)OC)[C@H](OC(=O)/C=C/C=C/CCC)[C@@](O)(O4)C(C)(C)/C=C/[C@@H](C1)O2)C[C@H](OC(C)=O)C3(C)C [MERLE 28] |  |  | Both of these aspects of bryostatin 1 induced biological response are captured | very similar to those for bryostatin 1 | functional antagonist of PMA and blocks the effect of the phorbol ester | approaches that of bryostatin 1 itself
